Drawing on US20220396577A1, “NOVEL SUBSTITUTED 1,3-8-TRIAZASPIRO[4,5] DECANE-2,4-DIONE COMPOUNDS AS INDOLEAMINE 2,3-DIOXYGENASE (IDO) AND/OR TRYPTOPHAN 2,3-DIOXYGENASE (TDO) INHIBITORS” (Merck Sharp & Dohme LLC, priority 2019, published 2022), this text covers IC50 for two compounds.

For one test, the target named is RPS6KB1 (Homo sapiens, UniProt P23443). Briefly: Off-target kinase panel, ZLYTE: RPS6KB1. Type of test: biochemical. As to conditions: read-out: Estimated IC50 (uM) RPS6KB1. The source says: (§1) The activity data was obtained in a panel of 265 and 264 for compounds 1-1 and CC-1, respectively, using the ZLYTE and ADAPTA assay methods indicated in the table below.
Sequence of RPS6KB1 (P23443 whole entry): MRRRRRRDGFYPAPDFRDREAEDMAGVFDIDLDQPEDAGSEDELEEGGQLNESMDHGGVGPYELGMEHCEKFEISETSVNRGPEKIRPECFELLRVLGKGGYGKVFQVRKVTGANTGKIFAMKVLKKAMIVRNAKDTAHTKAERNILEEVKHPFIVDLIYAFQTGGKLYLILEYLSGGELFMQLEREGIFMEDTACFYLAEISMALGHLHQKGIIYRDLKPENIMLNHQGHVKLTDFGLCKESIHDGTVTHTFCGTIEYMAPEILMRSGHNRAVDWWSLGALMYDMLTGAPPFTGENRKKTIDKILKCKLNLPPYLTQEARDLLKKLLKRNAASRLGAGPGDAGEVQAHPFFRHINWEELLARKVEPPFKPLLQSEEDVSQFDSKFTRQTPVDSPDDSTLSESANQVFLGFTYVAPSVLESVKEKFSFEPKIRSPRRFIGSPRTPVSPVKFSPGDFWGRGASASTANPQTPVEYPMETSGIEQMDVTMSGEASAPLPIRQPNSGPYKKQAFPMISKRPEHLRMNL
(§2) The ZLYTE biochemical assay employs a fluorescence-based, coupled-enzyme format and is based on the differential sensitivity of phosphorylated and non-phosphorylated peptides to proteolytic cleavage. The peptide substrate is labeled with two fluorophores—one at each end—that make up a Fluorescence Resonance Energy Transfer (FRET) pair.
(§3) In the primary reaction, the kinase transfers the gamma-phosphate of ATP to a single tyrosine, serine or threonine residue in a synthetic FRET-peptide. In the secondary reaction, a site-specific protease recognizes and cleaves non-phosphorylated FRET-peptides. Phosphorylation of FRET-peptides suppresses cleavage by the Development Reagent. […] A ratiometric method, which calculates the ratio (the Emission Ratio) of donor emission to acceptor emission after excitation of the donor fluorophore at 400 nm, is used to quantitate reaction progress, as shown in the equation below. […]
(§4) Both cleaved and uncleaved FRET-peptides contribute to the fluorescence signals and therefore to the Emission Ratio. The extent of phosphorylation of the FRET-peptide can be calculated from the Emission Ratio. […]
(§5) 10. Read on fluorescence plate reader and analyze the data.

A further test addresses CDK2 (Homo sapiens, UniProt P24941). Briefly: Off-target kinase panel, ZLYTE: CDK2. The class given is biochemical. To be noted: read-out: Estimated IC50 (uM) CDK2.
Source text: as §1, §2, §3, §4, §5

For another test, the target named is T1, TDO (Homo sapiens, UniProt P48775).
T1 construct: endogenous in cells; host or cells: SW48 cells
T1 sequence (P48775 whole entry): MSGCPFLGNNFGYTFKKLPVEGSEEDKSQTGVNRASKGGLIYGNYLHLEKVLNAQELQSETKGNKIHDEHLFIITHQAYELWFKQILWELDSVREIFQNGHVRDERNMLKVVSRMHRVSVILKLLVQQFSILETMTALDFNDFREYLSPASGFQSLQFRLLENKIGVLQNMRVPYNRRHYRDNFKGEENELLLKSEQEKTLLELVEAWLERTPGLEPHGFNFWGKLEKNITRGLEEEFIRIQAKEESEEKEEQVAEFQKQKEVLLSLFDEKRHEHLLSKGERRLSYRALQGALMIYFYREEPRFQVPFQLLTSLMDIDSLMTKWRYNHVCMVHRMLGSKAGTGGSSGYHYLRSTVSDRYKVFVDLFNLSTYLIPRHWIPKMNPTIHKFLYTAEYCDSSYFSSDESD
The test is described as follows: TDO Cellular Assay (C), SW48 cells. Type of test: cell-based. As to conditions: 48 hours, second value of cell. Here is the method:
Compounds were serially diluted in DMSO and acoustically dispensed (LabCyte Echo) into each well of a black 384-well cell culture plate (Greiner). SW48 cells were diluted to a density of 2×10^5 cells/ml in complete RPMI culture medium supplemented with […] L-tryptophan and […] SW48 cells were dispensed to each well of 384-well plates with a compound. Plates are gently shaken and then incubated for 48 hours at 37° C. in an incubator with 5% CO2. After incubation, 12 μl of the detection agent (0.5 M isonipecotate in DMSO) was added to each well and incubated at 37° C. overnight. The fluorescent signal was read on a Spectramax plate reader with excitation at 400 nm and emission at 510 nm. The percent inhibition was determined by normalization to wells containing no compound relative to wells receiving no cells.

The target of another test is TYK2 (Homo sapiens, UniProt P29597). Briefly: Off-target kinase panel, ZLYTE: TYK2. Type of test: biochemical. To be noted: read-out: Estimated IC50 (uM) TYK2.
Sequence of TYK2 (P29597 whole entry): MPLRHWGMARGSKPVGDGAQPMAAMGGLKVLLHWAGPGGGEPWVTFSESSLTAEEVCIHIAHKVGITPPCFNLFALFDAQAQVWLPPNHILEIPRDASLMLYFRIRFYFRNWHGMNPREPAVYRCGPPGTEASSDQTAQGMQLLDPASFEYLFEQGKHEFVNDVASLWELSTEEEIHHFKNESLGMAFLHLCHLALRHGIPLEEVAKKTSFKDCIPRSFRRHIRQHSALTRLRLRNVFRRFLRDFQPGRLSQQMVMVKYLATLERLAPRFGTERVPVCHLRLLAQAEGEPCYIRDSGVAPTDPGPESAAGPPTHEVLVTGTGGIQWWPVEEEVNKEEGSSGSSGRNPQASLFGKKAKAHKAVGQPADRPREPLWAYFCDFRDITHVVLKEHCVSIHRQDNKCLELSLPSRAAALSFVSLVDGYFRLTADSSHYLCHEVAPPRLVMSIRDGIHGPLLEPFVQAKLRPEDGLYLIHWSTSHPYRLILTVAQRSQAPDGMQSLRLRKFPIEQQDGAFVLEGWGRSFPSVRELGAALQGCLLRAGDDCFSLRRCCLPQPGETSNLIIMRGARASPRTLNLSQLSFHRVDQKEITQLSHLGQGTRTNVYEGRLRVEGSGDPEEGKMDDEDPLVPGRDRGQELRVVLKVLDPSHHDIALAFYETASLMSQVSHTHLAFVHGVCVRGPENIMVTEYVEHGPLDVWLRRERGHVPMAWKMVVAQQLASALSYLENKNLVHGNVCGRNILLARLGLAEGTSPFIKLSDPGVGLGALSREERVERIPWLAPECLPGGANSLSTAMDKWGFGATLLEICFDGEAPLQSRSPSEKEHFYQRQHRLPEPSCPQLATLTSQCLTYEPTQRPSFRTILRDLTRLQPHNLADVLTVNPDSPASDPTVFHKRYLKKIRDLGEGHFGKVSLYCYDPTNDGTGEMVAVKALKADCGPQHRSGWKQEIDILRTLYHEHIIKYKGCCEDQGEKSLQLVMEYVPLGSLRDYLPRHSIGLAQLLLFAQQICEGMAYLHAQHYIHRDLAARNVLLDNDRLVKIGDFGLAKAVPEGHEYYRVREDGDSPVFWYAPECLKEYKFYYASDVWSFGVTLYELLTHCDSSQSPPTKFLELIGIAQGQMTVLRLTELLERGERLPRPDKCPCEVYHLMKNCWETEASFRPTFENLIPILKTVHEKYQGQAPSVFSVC
Source text: as §1, §2, §3, §4, §5

In another test the target is CDK5/P35 (Homo sapiens, UniProt Q00535). Briefly: Off-target kinase panel, ZLYTE: CDK5/P35. Type of test: biochemical. To be noted: read-out: Estimated IC50 (uM) CDK5/P35.
Sequence of CDK5/P35 (Q00535 whole entry): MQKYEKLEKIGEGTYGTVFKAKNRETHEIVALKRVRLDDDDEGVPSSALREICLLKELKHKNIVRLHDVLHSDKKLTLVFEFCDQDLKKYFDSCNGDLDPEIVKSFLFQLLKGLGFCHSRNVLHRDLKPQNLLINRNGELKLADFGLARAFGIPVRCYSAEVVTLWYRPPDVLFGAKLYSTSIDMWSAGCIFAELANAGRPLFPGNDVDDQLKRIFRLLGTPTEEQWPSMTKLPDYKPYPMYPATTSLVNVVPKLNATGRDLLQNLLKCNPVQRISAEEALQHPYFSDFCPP
Sequence of CDK5/P35 (Q15078 2-307 partner limits assumed): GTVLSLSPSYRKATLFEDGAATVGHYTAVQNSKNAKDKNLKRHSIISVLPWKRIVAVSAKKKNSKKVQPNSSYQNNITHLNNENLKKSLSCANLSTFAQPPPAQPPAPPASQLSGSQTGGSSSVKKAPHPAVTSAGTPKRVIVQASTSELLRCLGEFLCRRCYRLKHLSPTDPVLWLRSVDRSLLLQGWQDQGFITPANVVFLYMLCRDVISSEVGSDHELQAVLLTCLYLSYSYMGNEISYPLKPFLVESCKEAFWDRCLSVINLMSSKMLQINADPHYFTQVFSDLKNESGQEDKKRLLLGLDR
Source text: as §1, §2, §3, §4, §5

The target in the next test is IDO1 (Homo sapiens, UniProt P14902). Briefly: IDO1 Enzymatic Assay (A). The class given is biochemical. As to conditions: recombinant HIS-tagged IDO1, 40 nM; read-out: IDO enzymatic IC50, nM (A). The protocol: Compounds to be tested were serially diluted in ten 3-fold steps in DMSO starting from 10 mM DMSO stocks. Compound dilutions or DMSO alone were then dispensed from the dilution plate into a Greiner black 384-well assay plate (catalog #781086) using an Echo 555 acoustic liquid handler (Labcyte). HIS-tagged IDO1 protein (Genbank #: NM_002164) was recombinantly expressed in Escherichia coli using ZYP5052 auto induction media supplemented with 500 μM delta aminolevulinic acid for 48 h at 16° C. IDO1 protein was purified using Ni^2+-affinity resin and size exclusion chromatography. Purified protein was then diluted in assay buffer (50 mM Tris pH 7.0, 1% glycerol, 20 μM methylene blue, 0.05% Tween-20, 20 mM sodium ascorbate, 100 units/mL catalase) to obtain a final IDO1 concentration of 40 nM. […] were dispensed to wells of the assay plate using a BioRAPTR liquid dispenser (Beckman Coulter). Assay plates containing compound and IDO1 enzyme were incubated at RT for 30 min. Afterwards, 10 μL of 400 μM tryptophan in assay buffer were added to each well of the assay plate using a BioRAPTR liquid dispenser. […] The resulting fluoresence was measured in an Envision plate reader (Perkin Elmer) with a 400/25 nm excitation filter and an 510/20 nm emission filter. […] Potencies were calculated by linear least squares fit to the four parameter logistic IC50 equation.
Sequence of IDO1 (P14902 whole entry): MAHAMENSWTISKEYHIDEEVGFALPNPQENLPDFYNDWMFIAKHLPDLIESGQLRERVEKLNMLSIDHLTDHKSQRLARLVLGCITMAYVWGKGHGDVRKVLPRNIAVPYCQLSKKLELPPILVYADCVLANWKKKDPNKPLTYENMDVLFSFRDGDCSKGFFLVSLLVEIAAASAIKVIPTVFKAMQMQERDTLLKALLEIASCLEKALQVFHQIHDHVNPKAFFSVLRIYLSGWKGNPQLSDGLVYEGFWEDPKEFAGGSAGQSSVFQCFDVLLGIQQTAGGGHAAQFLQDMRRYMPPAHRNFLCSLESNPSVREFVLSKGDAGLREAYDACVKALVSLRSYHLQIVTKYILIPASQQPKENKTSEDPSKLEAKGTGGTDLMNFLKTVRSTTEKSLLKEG

The next test has as its target MELK (Homo sapiens, UniProt Q14680). The test is described as follows: Off-target kinase panel, ZLYTE: MELK. Type of test: biochemical. To be noted: read-out: Estimated IC50 (uM) MELK.
Source text: as §1, §2, §3, §4, §5

For another test, the target named is CDK5/P25 (Homo sapiens, UniProt Q00535). Briefly: Off-target kinase panel, ZLYTE: CDK5/P25. Type of test: biochemical. To be noted: read-out: Estimated IC50 (uM) CDK5/P25.
Sequence of CDK5/P25 (Q00535 whole entry): as the sequence (Q00535 whole entry) above
Sequence of CDK5/P25 (Q15078 99-307 partner limits assumed): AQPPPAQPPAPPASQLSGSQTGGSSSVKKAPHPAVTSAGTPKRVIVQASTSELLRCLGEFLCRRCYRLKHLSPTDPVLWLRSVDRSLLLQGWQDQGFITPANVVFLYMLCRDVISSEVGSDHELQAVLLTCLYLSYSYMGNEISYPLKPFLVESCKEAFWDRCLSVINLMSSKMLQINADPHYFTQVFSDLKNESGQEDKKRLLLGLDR
Source text: as §1, §2, §3, §4, §5

SMILES strings stand for the structures.

Sequence of MELK (Q14680 whole entry): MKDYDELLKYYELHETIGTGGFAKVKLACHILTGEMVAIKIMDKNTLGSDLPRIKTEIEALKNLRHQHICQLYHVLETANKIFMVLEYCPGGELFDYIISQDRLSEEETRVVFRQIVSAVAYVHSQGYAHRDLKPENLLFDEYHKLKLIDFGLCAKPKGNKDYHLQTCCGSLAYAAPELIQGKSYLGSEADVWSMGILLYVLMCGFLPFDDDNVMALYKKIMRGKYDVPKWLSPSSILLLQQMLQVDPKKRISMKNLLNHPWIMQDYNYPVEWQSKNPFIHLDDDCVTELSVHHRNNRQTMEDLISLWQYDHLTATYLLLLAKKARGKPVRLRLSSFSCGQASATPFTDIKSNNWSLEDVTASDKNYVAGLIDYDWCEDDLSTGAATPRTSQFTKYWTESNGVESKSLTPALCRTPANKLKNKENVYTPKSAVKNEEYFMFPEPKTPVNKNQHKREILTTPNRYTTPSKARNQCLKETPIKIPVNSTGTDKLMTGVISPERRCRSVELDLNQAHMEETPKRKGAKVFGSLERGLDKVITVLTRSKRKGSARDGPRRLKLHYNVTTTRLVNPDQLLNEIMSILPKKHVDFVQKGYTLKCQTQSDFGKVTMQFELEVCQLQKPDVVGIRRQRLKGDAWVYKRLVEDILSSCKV

For the compound `O=C1NC(=O)C2(CCN(c3cc(Cl)cc4[nH]ncc34)CC2)N1` [CC-1], the IC50 at RPS6KB1 was 1.7 µM; at CDK2, 1.5 µM; against TDO, 206 nM; on TYK2, 2 µM; on CDK5/P35, 1.6 µM; at IDO1, 113 nM. For the same compound, the IC50 at MELK was 1.4 µM; at CDK5/P25, 1.2 µM.

In the case of `C[C@@H]1CN(c2cc(Br)cc3[nH]ncc23)CC[C@]12NC(=O)NC2=O` (single isomer, unassigned) [Compound 1-1], the IC50 is 1.9 µM at RPS6KB1; above 2 µM on CDK2; 247 nM against TDO; above 2 µM on TYK2; above 2 µM at CDK5/P35; 129 nM at IDO1. In addition, the IC50 at MELK and at CDK5/P25 was above 2 µM each time.
